Reference: US20250179502A1, “TARGETING NEUROPILIN 2 (NRP2) IN LETHAL PROSTATE CANCER” (UNIVERSITY OF MASSACHUSETTS, priority 2022, published 2025)
Numbered stars: 1 amine (or outer) side, 2 acyl side, 3 side chain; on linkers, the order of the positions; unused ones are H or OH. Bridge positions count the residues as written; N and C are the ends. Square brackets hold non-standard residues; d marks the D form. Peptide text beside a SMILES is read from it. I, II: the chains in the order shown. Actinocin(9to1) = Cc1c2oc3c(C)ccc(C(=O)[*:1])c3nc-2c(C(=O)[*:2])c(N)c1=O; NMeV = CN[C@H](C(=O)O)C(C)C; Sar = CNCC(=O)O

Columns and labels:
Nrp2-b1b2 = target: T1, Nrp2-b1b2 (Homo sapiens, UniProt O60462); details: cited from earlier work
T1 sequence (O60462 276-595 limits assumed): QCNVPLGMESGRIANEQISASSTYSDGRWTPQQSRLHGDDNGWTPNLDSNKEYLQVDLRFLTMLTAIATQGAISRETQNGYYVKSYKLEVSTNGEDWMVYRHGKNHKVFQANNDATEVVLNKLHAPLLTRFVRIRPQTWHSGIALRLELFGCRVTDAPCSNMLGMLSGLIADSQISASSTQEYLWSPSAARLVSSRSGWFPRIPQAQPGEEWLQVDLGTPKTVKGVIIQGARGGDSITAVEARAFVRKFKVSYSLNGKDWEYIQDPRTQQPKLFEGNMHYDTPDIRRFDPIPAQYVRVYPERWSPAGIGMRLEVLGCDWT

PD-L1 mRNA in PC3 = experiment: PD-L1 mRNA by qPCR in PC3 cells treated with YAP inhibitor; format: cell-based, human; details: Verteporfin 2 μM for 24 hours versus DMSO
Experimental: (D) Bar graphs show fold change of PD-L1/18S mRNA in PC3 treated with DMSO versus PC3 treated with YAP inhibitor (Verteporfin) from 3 independent experiments determined by qPCR.
The following reagents were used: CellTrace™ Violet Cell Proliferation Kit (Thermo Fisher, C34571), eBioscience™ Fixable Viability Dye eFluor™ 780 (Invitrogen, 65-0865-14). Verteporfin was purchased from Tocris and used at a concentration of 2 μM for 24 hours.
Real-time qPCR. RNA extraction was accomplished using an RNA isolation kit (BS88133, Bio Basic Inc.), and cDNAs were produced using a qScript cDNA syn-thesis kit (#95047, Quantabio). SYBR Green (Applied Biosystems) was used as the qPCR master mix. Experiments were performed in triplicate and normalized to 18S. qPCR primer sequences were obtained from the Massachusetts General Hospital/Harvard Medical School PrimerBank (pga.mgh. harvard.edu/primerbank/).

| Compound | AP-VEGF-C/Nrp2-b1b2 binding (Nrp2-b1b2) | PD-L1 mRNA level (PD-L1/18S) (PD-L1 mRNA in PC3) |
| --- | --- | --- |
| Cc1c2oc3c(C)ccc(C(=O)N[C@@H]4C(=O)N[C@H](C(C)C)C(=O)N5CCC[C@H]5C(=O)N(C)CC(=O)N(C)[C@@H](C(C)C)C(=O)O[C@@H]4C)c3nc-2c(C(=O)N[C@@H]2C(=O)N[C@H](C(C)C)C(=O)N3CCC[C@H]3C(=O)N(C)CC(=O)N(C)[C@@H](C(C)C)C(=O)O[C@@H]2C)c(N)c1=O [Actinomycin D] (I: T[dV]P[Sar][NMeV] / II: T[dV]P[Sar][NMeV]; ester I:1-I:C, II:1-II:C; linker I:N-II:N via Actinocin(9to1)) | inhibit |  |
| Oc1cc2c(cc1O)[C@H]1c3ccccc3CN[C@@H]1CC2 (racemic) [Dihydrexidine] | inhibit |  |
| COc1cc(C(=O)NS(=O)(=O)c2ccccc2C)ccc1Cc1cn(C)c2ccc(NC(=O)OC3CCCC3)cc12 [Zafirlukast] | inhibit |  |
| Verteporfin |  | significantly reduced |
